Measurements published in patent US20030108512A1, “Modified prostaglandin compounds and analogs thereof, compositions containing the same useful for the treatment of cancer” (priority 2001, published 2003).
pIC50: −log10 of the molar value.

How the values were obtained:
LOX cells = experiment: Apoptosis assay (Vybrant Apoptosis Assay Kit #4, YO-PRO); assay type: cell-based, human; conditions: overnight, n=4, FIGS. 9-11
Protocol: An apoptosis assay marketed as Vybrant Apoptosis Assay Kit #4 from Molecular Probes, Inc., was obtained for the test.
The LOX cell cultures were incubated overnight.
The apoptosis assay was performed four times (n=4) for each test compound.

[1] = test system: human amelanotic melanoma cell line (LOX); experiment: Collagen degradation inhibition assay (fluorescent-labelled Type I collagen matrix seeded with tumor cells); assay type: cell-based; conditions: n=4, FIGS. 2-4; for pIC50: LOX cells on labelled Type I collagen film; for dosage at which collagen degradation activity by LOX cells was inhibited: dosages tested about 10^−6 to 10^3 μM
From the text: The assay for screening antimetastatic agents is comprised of a collagenous matrix comprising collagenous components including but not limited to Type I or Type VI collagen or denatured collagen such as gelatin to form a scaffold-matrix. The scaffold matrix is subsequently coated with blood-borne components such as fibronectin, laminin, and fibrin for inducing adherence of the tumor cells and thereafter, labeled with quench fluorescent dyes. During performance of the assay, tumor cells that are present, adhere, ingest and invade the labeled scaffold-matrix resulting in the release of highly fluorescent peptides. Generally, tumor cells include a specific cell structure typically comprised of tentacles or arms (i.e. invadopodia) which secrete specific digestive enzymes including seprase, dipeptidyl peptidase IV (DPPIV), membrane Type-1 matrix metalloproteinases, and the like, to breakdown the collagen matrix. The fluorescence becomes visible only in the presence of these specific digestive enzymes produced by the tumor cells and increases in proportion to the activity of the digestive enzymes, thus providing a qualitative/quantitative measure of the invasiveness of the tumor cells. Other labeling methods including, but not limited to the use of, biotin, color dyes, and radioactive probes may also be used. As described herein, the assay utilizes a thin coating of collagen labeled with a fluorescent dye probe to form a scaffold collagen matrix, and tumor cells. The scaffold collagen matrix simulates the extracellular environment that is attacked by tumor cells during metastasis. The tumor cells attack the matrix by secreting proteolytic enzymes that break the collagen into peptide fragments. The peptide fragments release the fluorescent dye probe, and fluorescent light is emitted. The observed light intensity of the fluorescence correlates proportionally with the collagen degradation activity of the tumor cells. The tumor cells used in the test samples were generated from a human amelanotic melanoma cell line (LOX). A solution of a Type I collagen was prepared at a concentration of about 3.56 mg/ml. The collagen solution was used to form a coating of a monolayer of Type I collagen on a 96-well microtiter plate. […] Fluorescence readings were made using a microtiter plate fluorescence reader set at 485 nm/538 nm (Ex/Em). […] The collagen degradation activity of the LOX cells was detected through the cleavage and release of fluorescent collagen peptides from the labeled collagen matrix film as described above. A positive fluorescence signal, ΔF indicates the presence of collagen degradation activity. […]

| SMILES | dosages giving a marked increase in the incidence of apoptosis (LOX cells) | pIC50 ([1]; Homo sapiens) | dosage at which collagen degradation activity by LOX cells was inhibited [1] | dosages causing LOX cells to enter apoptosis (LOX cells) | pIC50 [1] |
| --- | --- | --- | --- | --- | --- |
| CCCCCC(O)CC[C@@H]1C2Cc3cccc(OCC(=O)O)c3CC2C[C@H]1O (stereo partly drawn) [Compound V, reference compound] | over 100 μM | 8.00 | about 2.5×10^−3 μM | – | – |
| CNC(=O)[C@H](Cc1ccccc1)NC(=O)[C@H](CC(C)C)[C@H](CSc1cccs1)C(=O)NO [MMP inhibitor, BATIMASTAT®, reference compound] | – | – | over 10^−4 μM | over 2 μM | 9.70 |
